The values that follow come from US5120752A, “Cyclopropyl derivative lipoxygenase inhibitors” (Abbott Laboratories, priority 1990, dated 1992).

Test [1] has as its target T1, 5-lipoxygenase (Rattus norvegicus, UniProt P12527).
T1 construct: 20,000×g supernatant from 1.5 million homogenized RBL-1 cells; endogenous in cells; host or cells: RBL-1 cells (20,000×g supernatant of homogenate)
T1 sequence (P12527 1-673): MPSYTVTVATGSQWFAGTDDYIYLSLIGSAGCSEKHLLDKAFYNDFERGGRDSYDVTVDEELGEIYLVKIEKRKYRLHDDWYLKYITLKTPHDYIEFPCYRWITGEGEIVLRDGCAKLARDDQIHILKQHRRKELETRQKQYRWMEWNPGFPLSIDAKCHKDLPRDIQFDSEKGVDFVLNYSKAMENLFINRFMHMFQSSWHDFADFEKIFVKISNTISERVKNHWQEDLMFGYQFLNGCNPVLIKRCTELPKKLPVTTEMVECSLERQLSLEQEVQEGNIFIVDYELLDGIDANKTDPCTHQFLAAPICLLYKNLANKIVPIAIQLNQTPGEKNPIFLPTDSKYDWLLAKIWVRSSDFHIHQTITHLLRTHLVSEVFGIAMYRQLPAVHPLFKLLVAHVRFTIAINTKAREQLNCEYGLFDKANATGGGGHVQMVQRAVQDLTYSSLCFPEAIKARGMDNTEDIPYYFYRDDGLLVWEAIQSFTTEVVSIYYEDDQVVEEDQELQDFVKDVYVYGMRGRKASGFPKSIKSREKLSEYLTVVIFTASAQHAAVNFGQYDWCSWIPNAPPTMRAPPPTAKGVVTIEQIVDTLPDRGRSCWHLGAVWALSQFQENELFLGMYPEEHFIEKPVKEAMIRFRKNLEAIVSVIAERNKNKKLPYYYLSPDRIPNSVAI
As to the kind of experiment: In vitro inhibition of 5-lipoxygenase (20,000×g supernatant from homogenized RBL-1 cells, radiolabeled arachidonic acid). Conditions: 20,000×g supernatant of RBL-1 cells; triplicate; read-out: IC50 (in vitro inhibitory potency against 5-lipoxygenase). The format is biochemical. As to the method:
Assays to determine 5-lipoxygenase inhibitory activity were performed in […] incubations containing the 20,000×g supernatant from 1.5 million homogenized RBL-1 cells and various concentrations of the test compound. Reactions were initiated by addition of radiolabeled arachidonic acid and terminated by acidification and ether extraction. Reaction products were separated from nonconverted substrate by thin layer chromatography and measured by liquid scintillation spectroscopy. All incubations were performed in triplicate. Inhibition of 5-lipoxygenase activity was calculated as the ratio of the amount of product formed in the presence and absence of inhibitor. IC50 values (concentration of compound producing 50% enzyme inhibition) were calculated by linear regression analysis of percentage inhibition versus log inhibitor concentration plots. (Dyer, R .D.; Haviv, F.; Hanel, A. M.; Bornemier, D. A.; Carter, G. W. Fed. Proc., Fed. Am. Soc. Exp. Biol. 1984, 43, 1462A).

Test [2] concerns leukotriene biosynthesis. Nature of the test: Inhibition of leukotriene biosynthesis in vivo after oral administration, rat peritoneal anaphylaxis model. Conditions: 200 μmol/kg oral (gavage), 1 h before antigen challenge; for inhibition in vivo at 200 µmol/kg: read-out: % Inhibition of Leukotrienes at 200 μmol/kg oral dose. As to the method:
Inhibition of the biosynthesis of leukotrienes in vivo after oral administration of representative test compounds of this invention was determined using a rat peritoneal anaphylaxis model in a similar manner as that described by Young and coworkers (Young, P. R.; Dyer, R. D.; Carter, G. W. Fed. Proc., Fed. Am. Soc. Exp. Biol. 1985, 44, 1185). In this model rats were injected intraperitoneally (ip) with rabbit antibody to bovine serum albumin (BSA) and three hours later injected ip with BSA to induce an antgen-antibody response. Rats were sacrificed 15 minutes after this challenge and the peritoneal fluids were collected and analyzed for leukotriene levels. Test compounds were administered by gavage one hour prior to the antigen challenge. Percent inhibition values were determined by comparing the treatment group to the mean of the control group. The results of this assay, for representative compounds of the present invention, at an oral dose level of […] are presented in Table 2, and at an oral dose of […] in Table 3.

The test system of test [3] is LTB4 biosynthesis in human whole blood. Nature of the test: Inhibition of calcium ionophore-induced LTB4 biosynthesis in human whole blood. The format is cell-based. Particulars: A23187 50 μM, 15 min preincubation, read-out: Inhibition of Leukotriene Biosynthesis IC50. As to the method:
Inhibition of leukotriene biosynthesis was evaluated in an assay, involving calcium ionophore-induced LTB4 biosynthesis expressed by human whole blood. Heparinized (20 U/mL) human blood (0.3 mL) was preincubated with test compound or vehicle for 15 min. at 37° C. Eicosanoid biosynthesis was initiated by adding calcium ionophore (A23187) in DMSO to a final concentration of 50 μM and terminated after 30 min. by rapid cooling of the blood in an ice bath and centrifuging at 3° C. for 10 min at 2500×g. The plasma was mixed with 4 volumes of methanol and allowed to stand for at least 30 min. at 3° C. prior to centrifuging at 1800×g for 10 min. The level of LTB4 in aliquots of the methanol-plasma extract was analyzed by radio-immunoassay or enyme-immunoassay techniques.

The IC50 is the concentration at which inhibition is half-maximal. `NC(=O)N(O)C[C@@H]1C[C@H]1c1ccccc1` (relative stereo) [Example 4, N-1-(trans-(2-phenylcyclopropyl)methyl)-N-hydroxyurea]: the IC50 in test [1] was determined as 1800 nM. Moreover, the inhibition in vivo at 200 µmol/kg in test [2] amounted to 97%. Regarding `NC(=O)N(O)C[C@@H]1C[C@H]1c1cccc(Oc2ccccc2)c1` (relative stereo) [Example 10, N-(1-trans-(2-(3-phenoxyphenyl)cyclopropyl)methyl)-N-hydroxyurea], the IC50 in test [1] was determined as 100 nM. Besides, the inhibition in vivo at 200 µmol/kg in test [2] amounted to 97%. The matching figures for `CNC(=O)N(O)C[C@@H]1C[C@H]1c1cccc(Oc2ccccc2)c1` (relative stereo) [Example 11, N-(1-trans-(2-(3-phenoxyphenyl)cyclopropyl)methyl)-N-hydroxy-N'-methylurea]: 100 nM and 65%.

For the compound `NC(=O)N(O)C[C@@H]1C[C@H]1c1cc2ccccc2s1` (relative stereo) [Example 12], in test [2], the inhibition in vivo at 200 µmol/kg amounted to 68%. On the same count and under the same terms, the same measure for `CNC(=O)N(O)C[C@@H]1C[C@H]1c1cc2ccccc2s1` (relative stereo) [Example 13]: 76%. As to `NC(=O)N(O)C[C@H]1C[C@H]1c1ccccc1` (relative stereo) [Example 16, N-(1-cis-(2-phenylcyclopropyl)methyl)-N-hydroxyurea], the IC50 in test [1] was 2800 nM. In test [2], the inhibition in vivo at 200 µmol/kg came out at 61%.

With `Cc1ccc([C@@H]2C[C@H]2C(C)N(O)C(N)=O)o1` (relative stereo) [Example 26, N-(1-trans-((5-methylfuran-2-yl)cyclopropyl)ethyl)-N-hydroxyurea], in test [1], the IC50 came out at 1100 nM. Besides, the “% Inhibition of Leukotrienes at 200 μmol/kg oral dose” value in test [2] was found to be 92%. Take `CC(=O)N(O)C[C@@H]1C[C@H]1c1ccccc1` (relative stereo) [Example 27, N-(1-trans-(2-phenylcyclopropyl)methyl)-N-hydroxyacetamide]: the IC50 in test [1] amounted to 1700 nM. In addition, the inhibition in vivo at 200 µmol/kg in test [2] was 99%. For `NC(=O)N(O)C[C@@H]1C[C@H]1CCc1ccccc1` (relative stereo) [Example 33, N-(1-trans-(2-(2-phenylethyl)cyclopropyl)methyl)-N-hydroxyurea], the inhibition in vivo at 200 µmol/kg in test [2] amounted to 84%.

For `NC(=O)N(O)CC[C@@H]1C[C@H]1c1ccccc1` (relative stereo) [Example 34, N-(2-trans-(2-phenylcyclopropyl)ethyl)-N-hydroxyurea], the IC50 in test [1] turned out to be 300 nM. In addition, the inhibition in vivo at 200 µmol/kg in test [2] was found to be 100%. With `NC(=O)N(O)C[C@@H]1C[C@H]1c1ccc(Br)cc1` (relative stereo) [Example 35, N-(1-trans-(2-(4-bromophenyl)cyclopropyl)methyl)-N-hydroxyurea], the inhibition in vivo at 200 µmol/kg in test [2] turned out to be 99%. As to `NC(=O)N(O)C[C@@H]1C[C@H]1c1ccccc1Oc1ccccc1` (relative stereo) [Example 40, N-(1-trans-(2-(2-phenoxyphenyl)cyclopropyl)methyl)-N-hydroxyurea], in test [1], the IC50 worked out at 200 nM. Further, the inhibition in vivo at 200 µmol/kg in test [2] was determined as 97%. In the same order, the values of `Cc1ccc([C@@H]2C[C@H]2CN(O)C(N)=O)cc1` (relative stereo) [Example 47, N-(1-trans-(2-(4-methylphenyl)cyclopropyl)methyl)-N-hydroxyurea] are 300 nM and 100%. With `NC(=O)N(O)C[C@@H]1C[C@H]1c1cccc(Oc2ccc(O)cc2)c1` (relative stereo) [Example 160, N-(1-trans-(2-(3(4-hydroxyphenoxy)phenyl)cyclopropyl)methyl)-N-hydroxyurea], in test [3], the IC50 stood at 470 nM. As to `CC([C@@H]1C[C@H]1c1cc2ccccc2s1)N(O)C(N)=O` (stereo partly drawn) [Example 1, N-(1-trans-(2-(benzo[b]thien-2-yl)cyclopropyl)ethyl)-N-hydroxyurea], the inhibition in vivo at 200 µmol/kg in test [2] was 62%. `CC([C@@H]1C[C@H]1c1ccccc1)N(O)C(N)=O` (stereo partly drawn) [Example 3, N-(1-trans-(2-phenylcyclopropyl)ethyl)-N-hydroxyurea]: the IC50 in test [1] was found to be 1600 nM. In test [2], the inhibition in vivo at 200 µmol/kg was 100%. For the compound `CC(N(O)C(N)=O)[C@]1(C)C[C@H]1c1ccccc1` (stereo partly drawn) [Example 5, N-(1-trans-(1-methyl-2-phenylcyclopropyl)ethyl)-N-hydroxyurea], the inhibition in vivo at 200 µmol/kg in test [2] amounted to 90%. For `CC(C1CC1c1ccccc1)N(O)C(N)=O` (stereo not drawn) [Example 9, N-(1-cis-(2-phenylcyclopropyl)ethyl)-N-hydroxyurea], the IC50 in test [1] is 1800 nM. Further, the inhibition in vivo at 200 µmol/kg in test [2] was found to be 61%.

Consider `CNC(=O)N(O)C(C)[C@@H]1C[C@H]1c1cccc(Oc2ccccc2)c1` (stereo partly drawn) [Example 17, N-(1-trans-(2-(3-phenoxyphenyl)cyclopropyl)ethyl)-N-hydroxy-N'-methylurea], for which the IC50 in test [1] came to 70 nM. In addition, the inhibition in vivo at 200 µmol/kg in test [2] was determined as 81%. As for `CC(C)Cc1ccc([C@@H]2C[C@H]2C(C)N(O)C(N)=O)cc1` (stereo partly drawn) [Example 19, N-(1-trans-(2-(4-(2-methyl-1-propyl)phenyl)cyclopropyl)-ethyl)-N-hydroxyurea], the inhibition in vivo at 200 µmol/kg in test [2] was found to be 64%. In the case of `COc1ccc([C@@H]2C[C@H]2C(C)N(O)C(N)=O)cc1` (stereo partly drawn) [Example 22, N-(1-trans-(2-(4-methoxyphenyl)cyclopropyl)ethyl)-N-hydroxyurea], the IC50 in test [1] was 900 nM. The inhibition in vivo at 200 µmol/kg in test [2] came to 96%.

As for `CC(Oc1ccc([C@@H]2C[C@H]2CN(O)C(N)=O)cc1)c1ccccc1` (stereo partly drawn) [Example 23, N-(1-trans-(2-(4-(1-phenylethoxy)phenyl)cyclopropyl)methyl)-N-hydroxyurea], the IC50 in test [1] came to 100 nM. The inhibition in vivo at 200 µmol/kg in test [2] came out at 93%. The matching figures for `CC(Oc1ccc([C@H]2[C@H](CN(O)C(N)=O)C2(C)C)cc1)c1ccccc1` (stereo partly drawn) [Example 25]: 100 nM and 52%. In the same order, the values of `CC(=O)N(O)C(C)[C@@H]1C[C@H]1c1cc2ccccc2s1` (stereo partly drawn) [Example 28, N-(1-trans-(2-(benzo[b]thien-2-yl)cyclopropyl)ethyl)-N-hydroxyacetamide] are 100 nM and 73%. In the same order, the values of `COc1ccc([C@@H]2C[C@H]2C(C)N(O)C(C)=O)cc1` (stereo partly drawn) [Example 29, N-(1-trans-(2-(4-methoxyphenyl)cyclopropyl)ethyl)-N-hydroxyacetamide] are 900 nM and 96%.

Turning to `CC([C@@H]1C[C@H]1c1ccc(Br)cc1)N(O)C(N)=O` (stereo partly drawn) [Example 37, N-(1-trans-(2-(4-bromophenyl)cyclopropyl)ethyl)-N-hydroxyurea], the IC50 in test [1] is 100 nM. In addition, the inhibition in vivo at 200 µmol/kg in test [2] came out at 93%. As to `Cc1ccc([C@@H]2C[C@H]2C(C)N(O)C(N)=O)cc1` (stereo partly drawn) [Example 39, N-(1-trans-(2-(4-methylphenyl)cyclopropyl)ethyl)-N-hydroxyurea], the inhibition in vivo at 200 µmol/kg in test [2] came out at 82%.
